“Also recorded” adds a separate entry of the source.
Legend:
[1] = target: hERG channel (Homo sapiens, UniProt Q12809); test: In vitro hERG assay
[2] = test system: SU-DHL-6; test: cellular growth inhibition assay (72 hour CTG), DLBCL; type: cell-based; conditions: SU-DHL-6 (GCB)
[3] = test system: SU-DHL-4 GCB DLBCL cell line; test: cell viability CellTiter Glo, 72 hours, with ibrutinib; type: cell-based; conditions: SU-DHL-4, monotherapy
[4] = test system: WSU-DLCL-2; test: cellular growth inhibition assay, DLBCL; type: cell-based; conditions: WSU-DLCL-2 (GCB)
[5] = test system: CLL cells; test: production of reactive oxygen species; type: cell-based; conditions: n=6
Description: (FIGS. 35 and 36). […] In addition, this direct inhibitory effect on CLL cells in the lymph nodes could lead to rapid and prolonged responses in cancer patients.

[6] = test system: U2932; test: cellular growth inhibition assay (72 hour CTG), DLBCL; type: cell-based
[7] = embryo/fetal developmental toxicity study in rabbits; conditions: female, rabbit, in vivo, 75 mg/kg/day; pregnant rabbits, last day of dosing; read-out: mean AUCO24 hr at the NOAEL
[8] = Phase 1 dose-escalation study in hematologic malignancies: pharmacokinetics; type: in vivo, human; conditions: patients, over the dose range studied
Experimental: PK and PD markers were evaluated after the first dose (e.g., 8 mg BID) and at steady state. PD activity (PI3K inhibition) in whole blood was evaluated using a basophil activation assay which measured reduction in CD63 expression on the surface of basophils following ex vivo stimulation.

[9] = test system: circulating CLL cells; test: Circulating CLL cells in treated CLL patients; type: in vivo, human; conditions: 25 mg BID
[10] = test system: TNF-α and IL-10 production; test: LPS-stimulated cytokine production in diluted whole blood; type: cell-based; conditions: diluted whole blood (1:1), 24 hours pre-treatment, 100 μg/mL LPS
[11] = test system: phospho-AKT in OCI-LY-8 cells; test: phospho-AKT after BCR crosslinking; type: cell-based
Description: These biochemical findings indicate a mechanistic rationale for combination of PI3K-δ,γ and BTK inhibition.

[12] = target: PI3K δ (Homo sapiens, UniProt O00329); test: PK/PD: plasma concentration versus PI3K-δ inhibition; type: in vivo; conditions: PK/PD in patients
[13] = test system: Sézary syndrome; test: clinical activity in Sézary syndrome; type: in vivo, human; conditions: 60 mg BID, 28 days cycle
Experimental: Number of Sézary cells were determined by following conventional procedures using flowcytometry. […] CT response was assessed in terms of Sum of Product Diameters (SPD). […] Finally, mSWAT scores were determined using conventional procedures well-known in the art (see, e.g., Olsen et al., Journal of Clinical Oncology, available from http://jco.ascopubs.org/cgi/doi/10.1200.JCO.2010.32.0630 (2011)).

[14] = test system: pPRAS40 and pS6 in CTCL cells; test: western blotting in CTCL cell lines; type: cell-based
Experimental: (§1) MJ and HuT78 cells were grown in IMDM 20% FBS, and HH cells were grown in RPMI 10% FBS.
Cells were washed with fresh media and lysed by adding 1x SDS sample buffer, followed by sonication. After heating the sample at 95-100° C. for 5 minutes and cooling on ice, the sample was microcentrifuged and run on SDS-PAGE. The resulting samples were electrotransfereed to nitrocellulose or PVDF membrane. After washing, the membrane was incubated in blocking buffer for 1 hour at room temperature, followed by washing with TBS/T. The membrane and primary antibodies are then inclubated overnight at 4° C. The membrane was again washed with TBS/T, and incubated with appropriate HRP-conjugated secondary antibodies. For biotinylated primary antibodies, the membrane was incubated with HRP-Streptavidin in milk. Upon completion of the incubation, the membrane was washed with TBS/T and was subjected to detection using LumiGLO®.

[15] = Pharmacokinetics / absolute bioavailability, dog; type: in vivo, Beagle dog; conditions: PO, 5 mg/kg, calculated using 0.5 mg/kg IV dose as reference and AUC0-last
[16] = test system: HH cells; test: CTCL cytotoxicity, 72 hours; type: cell-based
Experimental: as §1

[17] = test system: PTEN deletion cell lines; test: sensitivity of PTEN deletion cell lines; type: cell-based

hERG channel, sequence (Q12809 whole entry): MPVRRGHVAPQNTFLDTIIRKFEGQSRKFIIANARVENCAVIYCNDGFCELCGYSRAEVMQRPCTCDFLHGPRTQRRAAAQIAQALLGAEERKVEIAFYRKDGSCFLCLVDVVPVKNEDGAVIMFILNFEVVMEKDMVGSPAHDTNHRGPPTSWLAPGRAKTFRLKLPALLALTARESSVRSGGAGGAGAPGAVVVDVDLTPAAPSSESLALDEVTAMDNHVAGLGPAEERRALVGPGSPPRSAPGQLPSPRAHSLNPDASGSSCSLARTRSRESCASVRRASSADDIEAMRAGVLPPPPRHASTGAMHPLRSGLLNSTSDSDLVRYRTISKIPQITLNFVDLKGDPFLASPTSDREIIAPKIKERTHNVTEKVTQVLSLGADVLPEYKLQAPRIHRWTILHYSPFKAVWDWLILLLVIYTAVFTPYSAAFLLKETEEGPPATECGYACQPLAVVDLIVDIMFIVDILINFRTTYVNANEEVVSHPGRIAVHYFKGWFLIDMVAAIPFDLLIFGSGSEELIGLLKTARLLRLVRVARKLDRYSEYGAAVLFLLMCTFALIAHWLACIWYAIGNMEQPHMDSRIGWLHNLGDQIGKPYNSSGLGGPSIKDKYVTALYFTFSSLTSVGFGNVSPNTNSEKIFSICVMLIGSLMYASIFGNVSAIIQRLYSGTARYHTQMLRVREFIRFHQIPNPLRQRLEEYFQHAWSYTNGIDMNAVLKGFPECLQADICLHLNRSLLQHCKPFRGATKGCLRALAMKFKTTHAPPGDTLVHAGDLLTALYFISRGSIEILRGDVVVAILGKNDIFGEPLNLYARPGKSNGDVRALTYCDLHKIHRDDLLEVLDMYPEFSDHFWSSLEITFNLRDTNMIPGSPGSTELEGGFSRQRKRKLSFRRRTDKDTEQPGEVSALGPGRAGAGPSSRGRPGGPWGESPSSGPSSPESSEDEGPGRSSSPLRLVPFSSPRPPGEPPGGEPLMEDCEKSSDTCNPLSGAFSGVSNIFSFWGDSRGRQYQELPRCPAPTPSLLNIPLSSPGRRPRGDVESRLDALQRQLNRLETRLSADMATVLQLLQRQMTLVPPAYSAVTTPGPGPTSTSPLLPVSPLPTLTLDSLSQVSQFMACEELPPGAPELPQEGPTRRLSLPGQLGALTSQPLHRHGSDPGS
PI3K δ, sequence (O00329 whole entry): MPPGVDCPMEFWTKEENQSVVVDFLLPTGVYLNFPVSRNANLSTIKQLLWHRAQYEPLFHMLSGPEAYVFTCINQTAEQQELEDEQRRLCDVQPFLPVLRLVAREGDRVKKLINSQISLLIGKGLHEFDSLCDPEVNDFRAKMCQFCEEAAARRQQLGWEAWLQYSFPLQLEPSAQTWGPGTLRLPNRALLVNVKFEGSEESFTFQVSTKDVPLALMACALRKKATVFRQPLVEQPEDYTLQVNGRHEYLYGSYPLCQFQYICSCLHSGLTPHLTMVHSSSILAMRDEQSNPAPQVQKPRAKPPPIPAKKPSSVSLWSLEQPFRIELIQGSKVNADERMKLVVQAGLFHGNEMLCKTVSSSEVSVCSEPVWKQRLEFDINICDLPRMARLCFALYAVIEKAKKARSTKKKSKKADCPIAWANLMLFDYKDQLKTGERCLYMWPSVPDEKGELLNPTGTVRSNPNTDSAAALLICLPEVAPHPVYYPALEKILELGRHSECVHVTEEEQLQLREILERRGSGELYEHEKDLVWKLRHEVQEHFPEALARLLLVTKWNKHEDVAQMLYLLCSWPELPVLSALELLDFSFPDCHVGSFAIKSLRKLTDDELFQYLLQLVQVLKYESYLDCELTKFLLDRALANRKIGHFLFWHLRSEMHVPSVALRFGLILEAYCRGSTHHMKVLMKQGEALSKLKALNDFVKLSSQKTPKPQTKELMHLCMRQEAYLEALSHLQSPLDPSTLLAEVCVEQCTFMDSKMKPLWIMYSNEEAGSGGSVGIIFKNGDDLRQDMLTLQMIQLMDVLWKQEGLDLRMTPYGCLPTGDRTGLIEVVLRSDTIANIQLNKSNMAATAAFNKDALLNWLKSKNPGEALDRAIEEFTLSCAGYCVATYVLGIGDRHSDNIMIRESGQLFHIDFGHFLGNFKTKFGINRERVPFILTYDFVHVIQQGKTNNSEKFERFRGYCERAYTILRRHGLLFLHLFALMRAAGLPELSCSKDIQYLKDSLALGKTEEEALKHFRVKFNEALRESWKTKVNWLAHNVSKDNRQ
PI3K δ, sequence (P27986 whole entry partner): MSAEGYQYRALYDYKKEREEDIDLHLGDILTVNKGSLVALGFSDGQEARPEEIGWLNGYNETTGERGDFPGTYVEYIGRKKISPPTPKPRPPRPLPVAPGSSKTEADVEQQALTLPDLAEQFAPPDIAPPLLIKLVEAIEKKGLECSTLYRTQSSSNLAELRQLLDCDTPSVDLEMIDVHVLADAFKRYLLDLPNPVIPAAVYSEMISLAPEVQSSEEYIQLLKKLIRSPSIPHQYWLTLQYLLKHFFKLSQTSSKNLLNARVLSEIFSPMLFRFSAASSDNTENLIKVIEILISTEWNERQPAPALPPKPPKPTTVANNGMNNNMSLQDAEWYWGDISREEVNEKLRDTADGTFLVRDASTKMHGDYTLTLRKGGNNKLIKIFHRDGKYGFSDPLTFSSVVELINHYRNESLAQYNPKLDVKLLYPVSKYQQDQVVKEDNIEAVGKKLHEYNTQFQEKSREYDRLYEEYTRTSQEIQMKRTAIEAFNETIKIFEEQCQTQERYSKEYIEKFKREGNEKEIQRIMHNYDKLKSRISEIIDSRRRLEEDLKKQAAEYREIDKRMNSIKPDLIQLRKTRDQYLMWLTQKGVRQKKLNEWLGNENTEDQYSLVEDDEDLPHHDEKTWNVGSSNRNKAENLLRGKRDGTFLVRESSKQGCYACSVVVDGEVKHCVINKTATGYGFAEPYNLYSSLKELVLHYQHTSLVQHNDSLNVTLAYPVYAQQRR

With `C[C@H](Nc1ncnc2[nH]cnc12)c1cc2cccc(Cl)c2c(=O)n1-c1ccccc1` [Compound 292] the Hill coefficient [1] was 1.3, the “sensitivity in cellular growth inhibition assay” value [2] was “more sensitive; also recorded: nanomolar (nM) range” and the “viability of DLBCL cells” value [3] was “dose dependently inhibited”. The “IC50, cellular growth inhibition” value [4] was “low micromolar (μM) range”, the dose limiting toxicity (15 mg BID cohort) was “Grade 4 neutropenia” and the “new Grade >3 neutropenia” value (20 patients, 8-50 mg BID) was 6 (30%) n (%). For the same compound, the “new Grade >3 thrombocytopenia” value (20 patients, 8-50 mg BID) was 1 (5%) n (%), the “patients with AEs Grade >3” value (20 patients, 8-50 mg BID) was 7 (35%) n (%) and the “patients with adverse events (AEs)” value (20 patients, 8-50 mg BID) was 13 (65%) n (%). For the same compound, the “Grade 3 ALT/AST elevations” value (20 patients, MM patient, onset 6 weeks after initiation of dosing) was 1 (5%) n (%), the “production of reactive oxygen species” value [5] was “enhanced” and the “IC50, cellular growth inhibition” value [6] was “non responsive”. The AUC [7] was 66200 ng·h/mL, the “plasma Cmax and AUC versus dose” value [8] was “dose-proportional increases” and the “CD38/CD69 double positive circulating CLL cells” value [9] was “reduction”. For the same compound, the “CD38 positive circulating CLL cells” value [9] was “reduction”, the “CD69 positive circulating CLL cells” value [9] was “reduction” and the “cytokine (TNF-α and IL-10) production” value [10] was “inhibition”. The “phospho-AKT increase after BCR crosslinking” value [11] was “completely inhibited”, the “dose at which complete inhibition of PI3K-δ can be achieved” value [12] was at least 15 mg BID and the “CT response, Sum of Product Diameters (SPD)” value [13] was “reduction in SPD”. For the same compound, the mSWAT scores [13] was “reduction in mSWAT scores”, the “number of Sézary cells in peripheral blood” value ([13]; flowcytometry) was “substantial reduction” and the “level of pPRAS40” value ([14]; HH, HuT78 and MJ cells, western blotting) was “dose dependently reduced”. For the same compound, the pS6 ([14]; resistant MJ cells) was “not modulated”, the Foral [15] was 97g'i % and the “cytotoxicity, sensitivity” value [16] was “more sensitive”. For the same compound, the sensitivity ([17]; 145 subsets of PTEN deletion cell lines) was “differentially susceptible” and the sensitivity ([17]; PTEN wild type cells) was “not sensitive”.

Reference: patent publication US20170360795A1, “TREATMENT OF CANCERS USING PI3 KINASE ISOFORM MODULATORS” (INFINITY PHARMACEUTICALS, INC., priority 2013, published 2017)
